These results are taken from article PMC11879040, “Advancing systemic toxicity risk assessment: Evaluation of a NAM-based toolbox approach” (Toxicological Sciences, 2024).

In series [1] the test system is Potassium Voltage-Gated Channel Kv non-selective, KCNQ1 (r). Kind of series: IPP KCNQ1 binding (antagonist radioligand). Set-up: species or system rat. As to conditions: control α-dendrotoxin.
The test system of series [2] is Gamma-aminobutyric acid receptor subunit alpha-1 BZD site, GABRA1A (r). It counts as binding, rat.
For series [3], the target named is T1, Estrogen receptor, ER1 (h) (Homo sapiens, UniProt P03372).
T1 construct: purchased Eurofins Cerep (SafetyScreen44-based IPP panel)
T1 sequence (P03372 1-595): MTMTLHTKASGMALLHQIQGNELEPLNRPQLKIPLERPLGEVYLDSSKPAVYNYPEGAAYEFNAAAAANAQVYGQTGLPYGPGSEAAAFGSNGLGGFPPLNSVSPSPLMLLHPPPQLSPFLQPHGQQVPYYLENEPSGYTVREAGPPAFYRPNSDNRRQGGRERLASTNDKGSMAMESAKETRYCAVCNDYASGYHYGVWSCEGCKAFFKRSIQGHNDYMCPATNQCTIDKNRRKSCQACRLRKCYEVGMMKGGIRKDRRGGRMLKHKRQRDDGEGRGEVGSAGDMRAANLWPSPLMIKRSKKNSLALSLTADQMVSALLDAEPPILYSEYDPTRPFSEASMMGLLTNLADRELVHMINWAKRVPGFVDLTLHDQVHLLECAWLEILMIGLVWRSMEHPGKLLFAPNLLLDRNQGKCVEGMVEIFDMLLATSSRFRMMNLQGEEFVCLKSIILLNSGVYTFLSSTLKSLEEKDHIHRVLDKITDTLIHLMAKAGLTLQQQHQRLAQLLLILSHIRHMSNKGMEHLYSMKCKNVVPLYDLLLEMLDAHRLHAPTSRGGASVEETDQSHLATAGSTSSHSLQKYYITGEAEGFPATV
The series is described as follows: IPP ER1 coactivator recruitment (agonist). It counts as biochemical. As to conditions: estriol.

Series [4] deals with Glutamate receptor ionotropic NMDA 1 non-selective, GRIN1 (r).
In another series the test system is rat. As to conditions: rat, ref ToxRefDB/Paul-Friedman et al. (2020)/regulatory opinions, cited from earlier work.
A further series has as its system Tubulin (r). Kind of series: IPP Tubulin binding. Set-up: species or system rat. As to conditions: ligand/control Colchicine.
The target of series [5] is T2, Pregnane X receptor PXR, NR1I2 (h) (Homo sapiens, UniProt O75469).
T2 sequence (O75469 1-434): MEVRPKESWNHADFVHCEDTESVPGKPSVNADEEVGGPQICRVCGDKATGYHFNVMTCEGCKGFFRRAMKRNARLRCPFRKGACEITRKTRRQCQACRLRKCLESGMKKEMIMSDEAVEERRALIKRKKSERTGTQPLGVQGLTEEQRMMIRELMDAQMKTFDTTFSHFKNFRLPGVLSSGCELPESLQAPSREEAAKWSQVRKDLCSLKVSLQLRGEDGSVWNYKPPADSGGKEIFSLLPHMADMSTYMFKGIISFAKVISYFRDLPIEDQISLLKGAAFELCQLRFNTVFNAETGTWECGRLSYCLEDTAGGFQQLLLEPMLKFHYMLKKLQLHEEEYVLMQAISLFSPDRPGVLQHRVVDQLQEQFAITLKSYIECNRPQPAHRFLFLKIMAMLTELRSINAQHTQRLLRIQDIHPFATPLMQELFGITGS
The series is described as follows: IPP PXR coactivator recruitment (antagonist). Particulars: ligand T0901317.

For series [6], the target named is Potassium voltage-gated channel subfamily H member 2 hERG, KCNH2 (h) (Homo sapiens, UniProt Q12809). As to conditions: [3H] Dofetilide, control Terfenadine.
Potassium voltage-gated channel subfamily H member 2 hERG, KCNH2 (h), sequence (Q12809 whole entry): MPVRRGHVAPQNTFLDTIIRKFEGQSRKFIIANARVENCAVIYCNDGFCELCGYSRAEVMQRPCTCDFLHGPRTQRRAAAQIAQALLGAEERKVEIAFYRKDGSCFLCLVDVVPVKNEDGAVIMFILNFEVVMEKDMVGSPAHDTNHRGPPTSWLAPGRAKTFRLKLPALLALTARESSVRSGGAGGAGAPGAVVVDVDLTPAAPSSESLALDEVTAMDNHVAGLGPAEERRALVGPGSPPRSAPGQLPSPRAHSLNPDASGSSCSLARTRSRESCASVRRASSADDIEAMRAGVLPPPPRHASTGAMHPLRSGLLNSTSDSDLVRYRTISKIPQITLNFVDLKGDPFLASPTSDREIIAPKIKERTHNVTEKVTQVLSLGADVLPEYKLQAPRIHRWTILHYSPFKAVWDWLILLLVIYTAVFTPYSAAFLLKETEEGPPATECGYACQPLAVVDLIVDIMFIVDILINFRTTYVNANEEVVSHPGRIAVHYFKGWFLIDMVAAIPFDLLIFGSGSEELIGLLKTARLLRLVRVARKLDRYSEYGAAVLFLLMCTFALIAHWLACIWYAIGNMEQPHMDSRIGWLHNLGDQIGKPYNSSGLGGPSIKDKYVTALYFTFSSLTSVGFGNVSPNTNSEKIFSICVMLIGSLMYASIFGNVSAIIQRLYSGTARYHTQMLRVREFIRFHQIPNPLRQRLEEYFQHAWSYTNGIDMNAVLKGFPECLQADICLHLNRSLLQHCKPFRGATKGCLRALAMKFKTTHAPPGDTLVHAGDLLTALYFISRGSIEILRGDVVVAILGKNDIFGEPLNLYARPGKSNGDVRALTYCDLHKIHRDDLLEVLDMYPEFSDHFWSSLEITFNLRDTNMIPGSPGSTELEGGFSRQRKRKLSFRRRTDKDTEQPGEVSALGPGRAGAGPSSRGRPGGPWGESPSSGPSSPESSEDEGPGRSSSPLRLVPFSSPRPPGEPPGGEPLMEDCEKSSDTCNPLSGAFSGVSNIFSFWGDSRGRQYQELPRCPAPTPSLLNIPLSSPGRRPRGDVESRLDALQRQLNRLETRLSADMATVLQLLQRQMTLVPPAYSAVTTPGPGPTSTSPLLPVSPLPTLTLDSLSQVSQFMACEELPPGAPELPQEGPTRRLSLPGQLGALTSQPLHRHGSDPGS
Series [7] has as its system HepG2 cells. Kind of series: High-throughput transcriptomics (HTTr, TempO-Seq), HepG2, 24 h. It counts as cell-based, human. Particulars: HepG2; for pod_httr_bifrost PoD: HTTr BIFROST PoD; for podl_path_minbmd PoD: HTTr minimum pathway BMD(L). The protocol:
(§1) HepG2, HepaRG, and MCF7 cells were treated with each compound for 24 h across a dose range of 7 concentrations and lysed using TempO-Seq lysis buffer (BioSpyder Technologies, proprietary kit, see [Middleton et al. 2022] for method details). Sequencing was performed using TempO-Seq (BioClavis) version 2 of the human whole transcriptome panel and analyzed as described previously in Middleton et al.

For series [8] the following is noted: PBK level L2; taken or scaled from references (median where several); ref [6],[7],[10],[19]; cited from earlier work.
Series [9] concerns Thyroid hormone receptor alpha, THRA (h). Kind of series: IPP THRA coactivator recruitment (agonist). As to conditions: agonist, T3. It counts as biochemical, human.
In a further series the test system is MCF7 cells. Kind of series: High-throughput transcriptomics (HTTr, TempO-Seq), MCF7, 24 h. It counts as cell-based, human. Particulars: MCF-7; for pod_httr_bifrost PoD: HTTr BIFROST PoD; for podl_path_minbmd PoD: HTTr minimum pathway BMD(L). The protocol:
as §1

Series [10] concerns the target T2, Pregnane X receptor PXR, NR1I2 (h). The series is described as follows: IPP PXR coactivator recruitment (agonist). Particulars: T0901317 for control.
A further series deals with HepaRG cells. The series is described as follows: High-throughput transcriptomics (HTTr, TempO-Seq), HepaRG, 24 h. Particulars: HepaRG; for pod_httr_bifrost PoD: HTTr BIFROST PoD; for podl_path_minbmd PoD: HTTr minimum pathway BMD(L). It counts as cell-based, human. On the procedure: as §1
The target in series [11] is T1, Estrogen receptor, ER1 (h). Kind of series: IPP ER1 coactivator recruitment (antagonist). It counts as biochemical. As to conditions: estriol.
The test system of series [12] is HepG2 cells. Kind of series: Cell stress panel (CSP), 24 h, 8 concentrations, BIFROST global PoD. It counts as cell-based. Particulars: for pod_cell_stress PoD: HepG2, cell stress panel PoD. On the procedure:
Compounds were tested using the previously developed cell stress panel ([Hatherell et al. 2020]) and the expanded biomarker panel outlined in Middleton et al. HepG2 cells were treated with all compounds for 24 h across 8 concentrations prior to biomarker analysis. The same plate layout and number of replicates (3 biological and 2 technical) were used as previously for each assay within the panel.

Series [13] addresses T3, Adenosine receptor A2a, ADORA2A (h) (Homo sapiens, UniProt P29274).
T3 construct: purchased Eurofins Cerep (SafetyScreen44-based IPP panel)
The series is described as follows: IPP ADORA2A binding (agonist radioligand).

The test system of series [14] is Sodium channel protein type 5 subunit alpha (site 2), SCN5A (r). It counts as binding, rat.
For series [15], the system named is 63 targets with known safety liabilities. The series is described as follows: In vitro pharmacological profiling (IPP) panel, screening at 10 or 100 µM and dose response, minimum IC50/AC50. It counts as biochemical. Particulars: lowest AC50 across IPP panel (systemic targets); cell_type -; read-out: ipp_lowest_ac50_systemic PoD.
For series [16] the following is noted: PBK level L2; at the given pH; single value or median; ref [1],[4],[5],[10],[11],[17],[26]; cited from earlier work.
Series [17] has as its target Voltage-dependent L-type Ca2+ channel (dihydropyridine site), CACNA1C (r) (Rattus norvegicus, UniProt P22002). It counts as binding. Particulars: IPP screening at 10 uM; control nitrendipine.
The nature of series [18]: Assignment of risk classifications to benchmark chemical-exposure scenarios. Particulars: for risk: Oral, Food residue, from table S1.
For series [19], the target named is T4, Peroxisome proliferator-activated receptor alpha, PPARA (h) (Homo sapiens, UniProt Q07869).
T4 sequence (Q07869 1-468): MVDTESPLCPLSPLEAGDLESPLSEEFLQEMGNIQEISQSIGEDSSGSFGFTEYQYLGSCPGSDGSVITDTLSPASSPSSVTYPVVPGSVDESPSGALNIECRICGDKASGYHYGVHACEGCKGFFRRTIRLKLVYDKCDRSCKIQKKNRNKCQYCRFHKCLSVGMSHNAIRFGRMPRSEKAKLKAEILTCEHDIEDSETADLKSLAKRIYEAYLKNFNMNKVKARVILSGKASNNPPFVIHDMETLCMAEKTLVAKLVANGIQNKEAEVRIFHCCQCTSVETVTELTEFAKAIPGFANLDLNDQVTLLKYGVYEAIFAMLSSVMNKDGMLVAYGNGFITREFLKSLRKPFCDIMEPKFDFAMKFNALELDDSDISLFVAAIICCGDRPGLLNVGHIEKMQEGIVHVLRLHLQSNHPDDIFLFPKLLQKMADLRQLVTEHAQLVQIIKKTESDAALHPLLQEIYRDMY
The series is described as follows: IPP PPARA coactivator recruitment (antagonist). It counts as biochemical.

For series [20] the following is noted: human.
The mark [21] stands for this setting: 100 uM, * denotes assay interference (2-Amino-6-chloro-4-nitrophenol, HC Red 3).

Each structure is given as a SMILES string. Where a name gives a salt, the structure may show the parent alone. Read-outs that look alike come from different tables or passages of the source. Peptide text beside a SMILES is read from it. Bounds are passed on as bounds.

T3 sequence (P29274 whole entry): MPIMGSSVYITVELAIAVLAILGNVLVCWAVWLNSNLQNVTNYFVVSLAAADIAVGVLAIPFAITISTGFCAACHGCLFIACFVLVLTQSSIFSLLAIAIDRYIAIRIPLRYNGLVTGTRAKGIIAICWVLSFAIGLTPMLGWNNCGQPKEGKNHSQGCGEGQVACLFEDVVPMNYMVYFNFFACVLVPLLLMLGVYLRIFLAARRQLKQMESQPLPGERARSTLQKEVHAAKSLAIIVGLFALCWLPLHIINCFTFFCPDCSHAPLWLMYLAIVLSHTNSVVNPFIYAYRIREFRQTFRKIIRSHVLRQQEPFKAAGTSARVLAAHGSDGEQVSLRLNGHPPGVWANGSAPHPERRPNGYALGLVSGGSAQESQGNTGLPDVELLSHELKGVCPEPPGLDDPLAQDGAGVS
Voltage-dependent L-type Ca2+ channel (dihydropyridine site), CACNA1C (r), sequence (P22002 whole entry): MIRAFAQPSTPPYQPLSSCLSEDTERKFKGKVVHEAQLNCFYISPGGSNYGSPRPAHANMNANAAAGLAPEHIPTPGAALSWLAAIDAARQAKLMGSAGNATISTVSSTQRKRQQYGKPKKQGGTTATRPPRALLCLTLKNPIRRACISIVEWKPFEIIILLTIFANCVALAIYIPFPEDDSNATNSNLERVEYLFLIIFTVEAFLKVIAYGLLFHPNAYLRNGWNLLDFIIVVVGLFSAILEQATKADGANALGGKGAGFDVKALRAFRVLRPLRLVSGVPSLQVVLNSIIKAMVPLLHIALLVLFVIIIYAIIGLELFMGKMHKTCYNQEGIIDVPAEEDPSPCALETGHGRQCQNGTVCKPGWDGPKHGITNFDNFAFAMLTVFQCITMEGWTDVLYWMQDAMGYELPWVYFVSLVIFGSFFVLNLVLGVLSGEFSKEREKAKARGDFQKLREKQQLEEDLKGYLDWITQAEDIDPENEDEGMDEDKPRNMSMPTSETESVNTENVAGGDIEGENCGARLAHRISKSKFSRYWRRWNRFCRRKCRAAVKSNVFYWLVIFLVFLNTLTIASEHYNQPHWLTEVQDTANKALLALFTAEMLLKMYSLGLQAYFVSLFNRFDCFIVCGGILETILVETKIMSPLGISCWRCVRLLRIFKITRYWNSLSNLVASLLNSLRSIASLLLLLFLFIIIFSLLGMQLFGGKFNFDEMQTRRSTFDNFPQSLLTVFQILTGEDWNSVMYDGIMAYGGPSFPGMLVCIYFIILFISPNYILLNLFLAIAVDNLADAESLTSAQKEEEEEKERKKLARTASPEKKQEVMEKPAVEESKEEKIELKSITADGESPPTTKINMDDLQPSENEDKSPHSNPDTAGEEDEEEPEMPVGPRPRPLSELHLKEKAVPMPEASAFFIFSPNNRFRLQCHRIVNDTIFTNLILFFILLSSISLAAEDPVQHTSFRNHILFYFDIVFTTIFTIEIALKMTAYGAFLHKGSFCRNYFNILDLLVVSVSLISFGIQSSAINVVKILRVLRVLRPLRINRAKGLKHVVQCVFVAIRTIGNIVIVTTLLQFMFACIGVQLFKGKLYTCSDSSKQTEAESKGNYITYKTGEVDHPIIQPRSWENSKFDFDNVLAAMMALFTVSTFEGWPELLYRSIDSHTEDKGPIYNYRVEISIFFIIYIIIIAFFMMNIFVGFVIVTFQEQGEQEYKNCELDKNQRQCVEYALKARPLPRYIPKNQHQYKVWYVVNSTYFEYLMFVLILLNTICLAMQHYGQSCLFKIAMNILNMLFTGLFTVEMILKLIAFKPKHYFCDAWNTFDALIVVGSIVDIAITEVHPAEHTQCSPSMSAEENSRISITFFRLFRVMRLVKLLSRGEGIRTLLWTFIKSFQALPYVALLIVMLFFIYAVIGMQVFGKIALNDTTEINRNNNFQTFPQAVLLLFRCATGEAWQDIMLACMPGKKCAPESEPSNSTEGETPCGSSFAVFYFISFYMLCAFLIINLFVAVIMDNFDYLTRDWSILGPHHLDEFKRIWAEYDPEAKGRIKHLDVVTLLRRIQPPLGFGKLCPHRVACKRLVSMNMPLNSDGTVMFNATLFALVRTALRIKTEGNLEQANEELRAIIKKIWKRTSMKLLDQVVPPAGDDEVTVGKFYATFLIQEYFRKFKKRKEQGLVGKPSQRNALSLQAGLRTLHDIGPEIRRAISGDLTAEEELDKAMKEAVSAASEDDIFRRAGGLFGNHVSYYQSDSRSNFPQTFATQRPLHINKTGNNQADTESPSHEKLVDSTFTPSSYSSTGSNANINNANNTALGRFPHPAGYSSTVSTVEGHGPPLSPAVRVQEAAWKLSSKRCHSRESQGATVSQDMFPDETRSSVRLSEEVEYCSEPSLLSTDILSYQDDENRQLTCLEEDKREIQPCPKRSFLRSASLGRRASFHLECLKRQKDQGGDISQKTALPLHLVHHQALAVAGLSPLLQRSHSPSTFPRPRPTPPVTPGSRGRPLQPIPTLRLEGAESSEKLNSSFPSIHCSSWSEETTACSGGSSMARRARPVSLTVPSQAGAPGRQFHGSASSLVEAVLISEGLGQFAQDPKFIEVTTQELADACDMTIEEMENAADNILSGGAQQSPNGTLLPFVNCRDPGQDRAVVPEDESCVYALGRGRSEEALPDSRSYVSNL

Regarding `COC(=O)[C@H](Cc1ccccc1)NC(=O)[C@@H](N)CC(=O)O` [Aspartame, Methyl L-alpha-aspartyl-L-phenylalaninate] (H-Asp-Phe-OMe), the Specific binding in series [1] (IPP screening at 100 uM) is listed as 2.5%; in series [2] (IPP screening at 100 uM, control diazepam) it was 7.4%; in [4] (IPP screening at 100 uM, control CGS 19755), 24.0%; in series [13] (IPP screening at 100 uM, control NECA), 0.3%; in [14] (IPP screening at 100 uM, control veratridine) it was 3.9%. Also, the “IPP screening %, Coactivator recruitment” value is listed as 0.0% in series [3] (setting [21]); -11.9% in series [5] (100 uM); 2.0% in series [9] (setting [21]); 15.7% in series [10] (100 uM); -1.0% in [11] (setting [21]). The “PoD (NOAEL)” value in the series on rat (38 days, developmental neurotoxicity study) was 1614 mg/kg bw/day. The “IPP screening %, Specific binding” value with Tubulin (r) (100 uM) is -13.0%; in series [6] (100 uM), 1.5%. Moreover, the “pod_httr_bifrost PoD” value with HepG2 cells [7] was determined as 1509.3 µM; with MCF7 cells it was 423.587 µM; in the series with HepaRG cells it was 853.753 µM. Moreover, the “podl_path_minbmd PoD” value in the series on HepG2 cells [7], in the series with MCF7 cells and in the series with HepaRG cells was 2500 µM each time. Further, the “Intrinsic Liver Clearance” value in [8] is reported as 400.2 L/h. The “Bioactivity Observations: cell stress panel” value in the series on HepG2 cells [12] was “the CSP shows some small effects on PGC1alpha/Nrf2 and the ECAR (seahorse)”. Besides, the “pod_cell_stress PoD” value with HepG2 cells [12] amounted to 536.875 µM.
In the case of `O=[N+]([O-])c1cc(C(F)(F)F)c(Cl)c([N+](=O)[O-])c1Nc1ncc(C(F)(F)F)cc1Cl` [Fluazinam, 3-Chloro-N-[3-chloro-2,6-dinitro-4-(trifluoromethyl)phenyl]-5-(trifluoromethyl)pyridin-2-amine], the Specific binding is -3.7% in series [1] (IPP screening at 10 uM); -31.4% in series [2] (IPP screening at 10 uM, control diazepam); 1.2% in series [4] (IPP screening at 10 uM, control CGS 19755); 99.9% in series [17]; 14.9% in series [13] (IPP screening at 10 uM, control NECA); 19.6% in series [14] (IPP screening at 10 uM, control veratridine). In addition, the “IPP screening %, Coactivator recruitment” value in [3] (10 uM) is on record as -4.0%; in [5] (10 uM), 111.2%; in series [9] (10 uM), 2.0%; in series [10] (10 uM), -8.8%; in [11] (10 uM), 46.0%. The AC50 in [15] came to 430 nM. Moreover, the “PoD (NOAEL)” value with rat (104 weeks) was 0.38 mg/kg bw/day. Also, the entries for the “IPP screening %, Specific binding” value (in the series with Tubulin (r) (10 uM); in [6] (10 uM)) were 9.0% and 16.2%, respectively. Further, the “Aqueous Solubility” value in [16] is 0.95 µg/mL. The “pod_httr_bifrost PoD” value was found to be 0.03634 µM in the series on HepG2 cells [7], 0.1303 µM in the series on MCF7 cells and 0.0222 µM in the series with HepaRG cells. For the same molecule, the entries for the “podl_path_minbmd PoD” value in the series on HepG2 cells [7], with MCF7 cells and in the series with HepaRG cells were 0.699 µM, 0.4999 µM and 0.4338 µM, respectively. Besides, the “Risk Classification” value in series [18] (Oral 0.01 mg/kg bw/day) and in [18] (Oral 32% of 0.01 mg/kg bw/day) was “Low risk” throughout. Further, the risk in series [18] (32% ADI 0.01 mg/kg bw/day, Exp1) was determined as 0; in series [18] (ADI 0.01 mg/kg bw/day, Exp2) it was 0. Further, the “Bioactivity Observations: cell stress panel” value with HepG2 cells [12] is “The seahorse assays within the cell stress panel do report activity and with a very large magnitude of change in the OCR biomarker”. Besides, the “pod_cell_stress PoD” value with HepG2 cells [12] worked out at 0.6023 µM.
On to `NNc1nncc2ccccc12` [Hydralazine hydrochloride, 1-Hydrazinylphthalazine--hydrogen chloride (1/1)], for which the Specific binding in series [1] (IPP screening at 10 uM) is listed as -8.8%; in series [2], 11.7%; in series [4] it was -0.5%; in [13] it was -8.0%; in series [14], 25.6%. In addition, in the series on Tubulin (r) (10 uM), the “IPP screening %, Specific binding” value is listed as 2.0%. The concentration for half-maximal inhibition (IC50) in [19] was greater than 28200 nM. In addition, the risk in [20] was 1. The “IPP screening %, Coactivator recruitment” value in series [9] (10 uM) stood at 3.0%. In the series with HepG2 cells [12], the “pod_cell_stress PoD” value was found to be 1.508 µM.
